Data published in patent US5663196A, “Methods for treating neoplastic disorders” (Boston University, priority 1993, dated 1997).
Read-outs that look alike come from different tables or passages of the source.

Experiments:
[1] = test system: EL-4 cells (type T lymphoma); experiment: Trypan Blue cell viability, EL-4; assay type: cell-based; conditions: Mus musculus, EL4, read-out: Trypan Blue Cell Viability (%)
Source text: (§1) 1) The Trypan Blue Dye Exclusion Test for monitoring ceil viability as described by Phillips, H. J., in Tissue Culture Methods and Applications; Kruse, P. F., Jr., Patterson, M. K., Eds.; Academic Press, New York, 1973, 406, and by Wu, Y. W., Chik, L. L., Knazek, R. A. Cancer Research 1989, 49, 3754. The results of this assay are expressed as a percentage of viable cells:
(§2) [% viable cells]=[no. of alive cells]/[total no. of cells]×100
(§3) where the total no. cells=dead cells+alive cells. The results are compared directly with an untreated control, which typically show a three-to-four-fold increase for cancer cells, and a two-fold increase for normal cells. Treatments resulting in [% viable cells] of <30% are considered cytotoxic. Therefore, the trypan blue dye exclusion test was used to assess the number of dead and alive cells using various cell lines upon treatment with the crude and purified agent. This test provides a simple clue to the acute or late onset of a cytotoxic response. Readings for this and all other in vitro assays were taken 48 hours after treatment with the unpurified agent, and also […] after treatment for the purified agent. Thus, the trypan blue dye exclusion assay functions to confirm whether or not the cells were viable at the time readings were taken for other bioassays.

[2] = test system: BW (BW5147) lymphoma cells; experiment: Trypan Blue cell viability, BW (BW5147); assay type: cell-based; conditions: Mus musculus, read-out: Trypan Blue Cell Viability (%)
Source text: as §1, §2, §3
(§4) With the preferred purified active agent in hand, ^3 H-thymidine incorporation and trypan blue assays were initially performed at different dosages using LK and BW lymphoma ceil lines in order to confirm the activity of the preferred purified active agent, and to bracket the active concentration range for the preferred purified active agent. With a molecular weight of 328, a 1 μg/mL solution corresponds to 3 μM concentration. In addition, the time course of cell viability in the trypan blue assay was also monitored in order to best optimize subsequent assays to ensure that the cells were still viable at the time of measurement, and to ensure a nontoxic response of the cells to the agent. Toxicity of the agent would have been observed as cell death within 2 hours. The trypan blue assays (Table 7), run at 30 μM and 3 μM of purified agent (10 and 1 μg/mL, respectively), indicated excellent cell viability after 24 hours, though with a significant drop in viability after 48 hours at a 30 μM dose of preferred purified active agent. Consequently the results of the in vitro assays employing purified agent were all recorded after 24 hours. In the ^3 H-thymidine incorporation assay (Table 8), dosages ranging from 0.1 to 250 μg/mL were examined.

P815 cells (mastocytoma) = experiment: Trypan Blue cell viability, P815; assay type: cell-based; conditions: Mus musculus, P815, read-out: Trypan Blue Cell Viability (%)
Source text: as §1, §2, §3

[3] = test system: BW (BW5147) lymphoma cells; experiment: 3H-Thymidine Incorporation, BW (BW5147); assay type: cell-based, mouse
Source text: (§5) 2) The ^3 H-Thymidine Incorporation Test as described by Ju, S. T., Dorf, M. E. J. Immunol. 1985, 134, 3722. This test was used for monitoring cellular proliferation by monitoring DNA synthesis. The results are expressed as percent ^3 H-thymidine incorporation relative to an untreated control:
(§6) [% ^3 H-thymidine incorporation]=[cpm agent treated cells]/[cpm
(§7) where cpm=counts per minute. Treatments resulting in [% ^3 H-thymidine incorporation] of <50% are considered active.
The ^3 H-thymidine incorporation assay therefore measures the amount of DNA synthesis when the cells are in the "S" phase of the cell cycle, and is used to assess cell proliferation. […]
With the preferred purified active agent in hand, ^3 H-thymidine incorporation and trypan blue assays were initially performed at different dosages using LK and BW lymphoma ceil lines in order to confirm the activity of the preferred purified active agent, and to bracket the active concentration range for the preferred purified active agent. […] In addition, the time course of cell viability in the trypan blue assay was also monitored in order to best optimize subsequent assays to ensure that the cells were still viable at the time of measurement, and to ensure a nontoxic response of the cells to the agent. […] Consequently the results of the in vitro assays employing purified agent were all recorded after 24 hours. […]

LK lymphoma cells [4] = experiment: 3H-Thymidine Incorporation, LK; assay type: cell-based, mouse
Source text: as §5, §6, §7
(§8) The ^3 H-thymidine incorporation assay therefore measures the amount of DNA synthesis when the cells are in the "S" phase of the cell cycle, and is used to assess cell proliferation. Cancer cells, which have a very rapid cell cycle turnover, normally incorporate large amounts of tritium (^3 H) unless inhibited by an exogenous agent. […] While the trypan blue dye exclusion test is an indicator of cell death, the ^3 H-thymidine incorporation test indicates a cytostatic status (not necessarily cytotoxic) of the cell. As previously noted, this latter test was the primary screen used to guide the isolation to the active agent.
as §4

[5] = test system: BW8767 cells (BW resistant mutant); experiment: 3H-Thymidine Incorporation, BW8767; assay type: cell-based; conditions: Mus musculus, read-out: 3H-Thymidine Incorporation (DNA Synthesis) Inhibition (%)
Source text: as §5, §6, §7, §8
The final in vitro assays performed with the preferred purified active agent were intended to examine the scope of the activity in the trypan blue assay against a wider range of tumor cell lines (Tables 10 and 11). These cell lines included a […] lymphoma BW8767, a BW mutant which is more resistant than the BW cell lines used in other assays, as evidenced by the results in Tables 10 and 11.

LK lymphoma cells [6] = experiment: 35S-Methionine Incorporation (protein synthesis), LK; assay type: cell-based; conditions: Mus musculus; for activity at 1 µg/mL: 1 μg/mL; for activity at 10 µg/mL: 10 μg/mL
Source text: 3) ^35 S-Methionine Incorporation Test as described by Sorenson, C. M., Barry, M. A., Eastman, A. J. Natl. Canc. Inst. 1990, 82, 749. The results are expressed as percent ^35 S-methionine incorporation relative to an untreated control:
[% ^35 S-methionine incorporation]=[cpm agent treated cells]/[cpm
where cpm=counts per minute. Treatments resulting in [% ^35 S-methionine incorporation] of <50% are considered active.
The ^35 S-methionine incorporation test therefore measures protein synthesis. Activity in this bioassay could arise from inhibition of transcription and/or translation.
In this test, BW and LK lymphoma cells were treated with the preferred purified active agent at 1 μg/mL and 10 μg/mL for comparison with an untreated control. The treated cells were split into two groups, one of which was thoroughly washed to remove the preferred purified active agent prior to incubation with ^35 S-methionine.

CC1=C2C(=O)C=C(CO)[C@@H]2[C@H]2OC(=O)[C@@H](C)[C@@H]2[C@@H](O)C1 [11β,13-dihydrolactucin, 3,6-dimethyl-4-hydroxy-9-hydroxymethyl-3,3a,4,5,9a,9b-hexahydroazuleno[4,5-b]furan-2,7-dione]
viability at 0.1 µg/mL [1]: 100% | viability at 0.5 µg/mL [1]: 100% | viability at 1 µg/mL [1]: 100% | viability at 10 µg/mL [1]: 100% | viability at 1 µg/mL ([2]; 2 h): 100% | viability at 10 µg/mL ([2]; 2 h): 100% | viability at 1 µg/mL ([2]; 5 h): 100% | viability at 10 µg/mL ([2]; 5 h): 100% | viability at 1 µg/mL ([2]; 12 h): 100% | viability at 10 µg/mL ([2]; 12 h): 100% | viability at 1 µg/mL ([2]; 24 h): 100% | viability at 10 µg/mL ([2]; 24 h): 85% | viability at 1 µg/mL ([2]; 36 h): 90% | viability at 10 µg/mL ([2]; 36 h): 72% | viability at 1 µg/mL ([2]; 48 h): 90% | viability at 10 µg/mL ([2]; 48 h): 60% | viability at 0.1 µg/mL [2]: 100% | viability at 0.5 µg/mL [2]: 100% | viability at 1 µg/mL [2]: 100% | viability at 10 µg/mL [2]: 80% | viability at 0.1 µg/mL (P815 cells (mastocytoma)): 100% | viability at 0.5 µg/mL (P815 cells (mastocytoma)): 100% | viability at 1 µg/mL (P815 cells (mastocytoma)): 100% | viability at 10 µg/mL (P815 cells (mastocytoma)): 80% | ED50, 3H-thymidine incorporation [3]: micromolar range | ED50, 3H-thymidine incorporation (LK lymphoma cells [4]): micromolar range | inhibition at 0.1 µg/mL (LK lymphoma cells [4]; Mus musculus, 3 h, 0.1 μg/mL, read-out: 3H-Thymidine Incorporation (DNA Synthesis) Inhibition (%)): 95% | inhibition at 1 µg/mL (LK lymphoma cells [4]; Mus musculus, 3 h, 1 μg/mL, read-out: 3H-Thymidine Incorporation (DNA Synthesis) Inhibition (%)): 75% | inhibition at 10 µg/mL (LK lymphoma cells [4]; Mus musculus, 3 h, 10 μg/mL, read-out: 3H-Thymidine Incorporation (DNA Synthesis) Inhibition (%)): 5% | inhibition at 25 µg/mL (LK lymphoma cells [4]; Mus musculus, 3 h, 25 μg/mL, read-out: 3H-Thymidine Incorporation (DNA Synthesis) Inhibition (%)): 2% | inhibition at 100 µg/mL (LK lymphoma cells [4]; Mus musculus, 3 h, 100 μg/mL, read-out: 3H-Thymidine Incorporation (DNA Synthesis) Inhibition (%)): 2% | inhibition at 250 µg/mL (LK lymphoma cells [4]; Mus musculus, 3 h, 250 μg/mL, read-out: 3H-Thymidine Incorporation (DNA Synthesis) Inhibition (%)): 2% | inhibition at 0.1 µg/mL ([5]; 0.1 μg/mL): 100% | inhibition at 0.5 µg/mL ([5]; 0.5 μg/mL): 100% | inhibition at 1 µg/mL ([5]; 1.0 μg/mL): 80% | inhibition at 10 µg/mL ([5]; 10 μg/mL): 60% | activity at 1 µg/mL (LK lymphoma cells [6]; LK (washed)): 100% | activity at 10 µg/mL (LK lymphoma cells [6]; LK (washed)): 100% | activity at 1 µg/mL (LK lymphoma cells [6]; LK, unwashed): 50% | activity at 10 µg/mL (LK lymphoma cells [6]; LK, unwashed): 10%
